US20040057926A1, “Modulation of the immune response through the manipulation of arginine levels” (LSU Medical Center, priority 2002, published 2004)

Experiments:
[1] = system: Jurkat cells; assay: CD3ζ chain expression in Jurkat cells on L-arginine depletion or replenishment (Western blot, flow cytometry); assay type: cell-based
Description: Next, it was tested whether L-arginine depletion altered the expression of the key elements of the T-cell antigen receptor and IL-2 receptor in Jurkat cells. […] The decreased expression of ζ chain was not due to an overall protein degradation since the expression of GAPDH and CD3ε was virtually unchanged over the same period of time. […] The initial decrease in CD3ζ could be seen as early as 24 hours, but continued up to 7 days in culture as compared to its expression in Jurkat cells cultured in C-RPMI that remains unchanged (data not shown).
Reappearance of CD3ζ chain occurred either by adding L-arginine alone at a concentration of 100 μM (FIGS. 4a, dashed line, and 4b, lane 3), or by replacing the TCM with C-RPMI (FIGS. 4a, solid line, and 4b, lane 4). […] The data discussed is representative of at least five experiments in each case.

[2] = system: purified T-cells; assay: CD3ζ expression in stimulated purified T-cell cultures with H. pylori sonicate; assay type: cell-based, human; settings: sonicate 20 μg/ml, L-arginine 400 μM
Description: After isolating peripheral blood mononuclear cells by Ficoll-Paque Plus (Amersham Pharmacia Biotech; Piscataway, N.J.), T-cells were purified by negative selection by using an affinity column (R & D Systems; Minneapolis, Minn.). The purity was always >90% T-cells as measured by the expression of CD3ε. H. pylori extracts or live H. pylori have no effect on resting T-cells, therefore T-cells were stimulated by cross linking anti-CD3 plus anti-CD28 as follows: 24 well plates were coated with 0.3 ml of goat-anti mouse (GAM) (Kirkegaard & Perry Laboratories; Gaithersburg, Md.) at 10 μg/ml in HBSS for 1 h. After washing twice with Hank's balanced salt solution (HBSS), 0.5×10^6 of purified T-cells were added per well in 1 ml of RPMI without L-arginine containing 1 μg/ml of anti-human CD3 (Ortho Diagnostics, Raritan, N.J.) and 100 ng/ml of anti-human CD28 (Becton-Dickinson) and cultured for 24 h. After this time L-arginine was added to the wells to give a final concentration of 0.4 mM. H. pylori sonicate (20 μg/ml) from either the wild type strain ATCC 43504 or its rocF (−) isogenic mutant was also added to the wells. After 24 h under these conditions, the cells were recovered and stained for CD3ζ. Six different donors were tested. […]

[3] = system: ASE I; assay: Western blot for ASE I in PM cytoplasmic extracts; assay type: cell-based, mice; settings: NOHA 100 μM, Nor-NOHA 50 μM
Description: Cytoplasmic extracts from PM, Jurkat cells or T lymphocytes were prepared as previously reported. Taheri, F., J. B. Ochoa, Z. Faghiri, K. Culotta, H. J. Park, M. S. Lan, A. H. Zea, and A. C. Ochoa. 2001. L-Arginine regulates the expression of the T-cell receptor zeta chain (CD3zeta) in Jurkat cells. Clin Cancer Res 7:958s-965s. Briefly, cells were resuspended in lysis buffer (50 mM HEPES, 150 mM NaCl, 5 mM EDTA, 1 mM NaOV4 and 0.5% Triton) containing 50 μg/ml of aprotinin, 50 μg/ml of leupeptin, 100 μg/ml of trypsin-chymotrypsin inhibitor and 2 mM PMSF. Lysates were centrifuged at 3000×g for 10 min at 4° C. Cytoplasmic extracts from Jurkat or T-cells were immunoblotted for CD3ζ and CD3ε. The expression ASE I, ASE II and iNOS was detected by immunoblot using PM extracts. GAPDH was used as housekeeping protein. Cytoplasmic extracts were electrophoresed in 12 or 8% Tris-Glycine gels (Novex, San Diego, Calif.), transferred to PVDF membranes and immunoblotted with the appropriate antibodies. The reactions were detected using the ECL kit (Amersham-Pharmacia).

[4] = system: T lymphocytes; assay: Co-culture in transwells of stimulated PM and stimulated normal T lymphocytes, CD3ζ expression; assay type: cell-based, human
Description: T-cells were isolated from mononuclear cells of healthy donors by T-cell enrichment columns (R&D Systems, Minneapolis, Minn.) according to manufacturer specifications. T-cell purity (CD3+) ranged between 89-95%. The cycle of internalization and re-expression of the TCR-CD3 complex was induced by T-cell stimulation with 1 μg/ml of anti-CD3, 100 ng/ml of anti-CD28 (Becton Dickinson) and 10 μg/ml of goat anti-mouse IgG (KPL, Gaithersburg, Md.). Cells were stimulated in the absence of L-Arg and added to the co-cultures 24 h after stimulation.
PM were cultured in 6 well plates in RPMI containing 150 μM L-Arg and stimulated with murine rIL-4 (50 U/ml) and murine rIL-13 (50 ng/ml), or murine rIFN-γ (100 U/ml) for 24 hours. Then 1×10^6 normal T-cells stimulated with anti-CD3 plus anti-CD28 or 1×10^6 Jurkat cells, were cultured in the top chamber of a transwell system having 0.4 μm pores (Falcon, Franklin lakes, N.J.). CD3ζ expression was measured in Jurkat cells or T lymphocytes at different time points. PM were detached using trypsin/EDTA and the expression of protein and RNA for CAT-2B, ASE I, ASE II and iNOS was tested by western blot and northern blot respectively. Cytoplasmic extracts from PM were used to test ASE activity. Supernatants from stimulated PM were used to measure NO production using the Griess reagent method (Molecular Probes, Eugene, Oreg.). In addition, the extra-cellular concentration of L-Arg was tested in supernatants by HPLC (Dr. Gu Yao Wu laboratory, University of Texas) as described previously. O'Quinn, P. R., D. A. Knabe, and G. Wu. 2002. Arginine catabolism in lactating porcine mammary tissue. J Anim Sci. 80:467-474.
Flow cytometry analysis was performed as previously described. Taheri, F., J. B. Ochoa, Z. Faghiri, K. Culotta, H. J. Park, M. S. Lan, A. H. Zea, and A. C. Ochoa. 2001. […] Fluorescence acquisition and analysis were done using a Coulter-EPICS XL flow cytometer (Beckman-Coulter) with a 488 nm argon laser. The data were expressed as mean channel fluorescence intensity (MFI).

| Compound | L-Arg concentrations that cause the rapid decrease of CD3ζ chain ([1]; Jurkat cells, in vitro) | loss of CD3ζ on replenishing L-arginine in the tissue culture medium ([1]; L-arginine alone at 100 μM) | CD3ζ expression in stimulated T-cells [2] | ASE I up regulation after IL-4+IL-13 stimulation [3] | CD3ζ in normal stimulated T lymphocytes co-cultured with IL-4+IL-13 activated PM [4] |
| --- | --- | --- | --- | --- | --- |
| N=C(N)NCCC[C@H](N)C(=O)O [L-arginine] | below 40 μM | fully reversible | recovered CD3ζ expression |  |  |
| NC(=NCCC[C@H](N)C(=O)O)NO [NOHA, NG-hydroxy-L-arginine] |  |  |  | did not prevent ASE I up regulation | prevented the loss of CD3ζ |
